Assay results taken from patent US11771702B2, “Agonists of PPAR-δ” (priority 2018, dated 2023).
Like-named read-outs stand apart in the source and are kept apart here.

Columns and labels:
PPAR-δ [1] = biological target: T1, PPAR-δ (Homo sapiens, UniProt Q03181); settings: ligand of the PDB complex, published EC50; cited from earlier work
T1 sequence (Q03181 1-441): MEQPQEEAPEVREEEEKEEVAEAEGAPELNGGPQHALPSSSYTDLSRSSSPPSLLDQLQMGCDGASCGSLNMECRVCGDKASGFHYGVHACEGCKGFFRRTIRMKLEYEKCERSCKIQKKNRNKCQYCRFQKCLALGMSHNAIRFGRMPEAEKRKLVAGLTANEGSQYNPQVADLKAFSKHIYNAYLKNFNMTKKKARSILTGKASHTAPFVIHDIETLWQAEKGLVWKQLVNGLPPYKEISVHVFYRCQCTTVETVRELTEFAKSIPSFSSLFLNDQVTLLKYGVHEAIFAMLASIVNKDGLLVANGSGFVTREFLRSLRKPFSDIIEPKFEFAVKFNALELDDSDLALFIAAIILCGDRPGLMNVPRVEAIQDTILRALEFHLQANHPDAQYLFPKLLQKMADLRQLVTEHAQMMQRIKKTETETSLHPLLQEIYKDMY

PPAR-δ [2] = biological target: T2, PPAR-δ (Homo sapiens, UniProt Q03181); experiment: GAL4-DBD/PPAR-LBD luciferase reporter agonist assay in HEK293T cells, PPAR-δ; assay type: cell-based; settings: for PPAR subtype selectivity: PPAR-δ vs PPAR-α and PPAR-γ
T2 construct: hPPARδ/LBD encoding amino acids 147-441; expressed in transfected cells; host or cells: HEK293T
T2 sequence (Q03181 147-441): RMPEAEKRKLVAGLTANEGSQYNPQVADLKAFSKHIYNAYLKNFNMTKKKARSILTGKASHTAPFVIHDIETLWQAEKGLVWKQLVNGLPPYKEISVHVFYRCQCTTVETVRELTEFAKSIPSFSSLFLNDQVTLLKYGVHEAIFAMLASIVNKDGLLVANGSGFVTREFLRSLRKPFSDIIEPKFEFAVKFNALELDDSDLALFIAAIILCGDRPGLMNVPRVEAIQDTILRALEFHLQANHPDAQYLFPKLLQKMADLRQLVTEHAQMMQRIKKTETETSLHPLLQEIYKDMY
Method: (§1) Measuring molecular agonist activities—a GAL4-DNA Binding Domain (GAL4-DBD) fusion protein was constructed for each PPAR family member. To assess compound activity, each construct was co-transfected into HEK293T cells (American Type Culture Collection; Manassas, Va.) along with the reporter construct, pGL5 (Promega) using Fugene 6 (Promega) as a transfection reagent and the manufacturer's protocol. An eleven-point dilution series of each compound was added to the cells and incubated overnight. Luciferase levels were then determined following the addition of Bright-Glo (Promega) using the manufacturer's recommendations.

PPAR-α = biological target: T3, PPAR-α (Homo sapiens, UniProt Q07869); experiment: GAL4-DBD/PPAR-LBD luciferase reporter agonist assay in HEK293T cells, PPAR-α; assay type: cell-based
T3 construct: hPPARα/LBD encoding amino acids 175-468; expressed in transfected cells; host or cells: HEK293T
T3 sequence (Q07869 175-468): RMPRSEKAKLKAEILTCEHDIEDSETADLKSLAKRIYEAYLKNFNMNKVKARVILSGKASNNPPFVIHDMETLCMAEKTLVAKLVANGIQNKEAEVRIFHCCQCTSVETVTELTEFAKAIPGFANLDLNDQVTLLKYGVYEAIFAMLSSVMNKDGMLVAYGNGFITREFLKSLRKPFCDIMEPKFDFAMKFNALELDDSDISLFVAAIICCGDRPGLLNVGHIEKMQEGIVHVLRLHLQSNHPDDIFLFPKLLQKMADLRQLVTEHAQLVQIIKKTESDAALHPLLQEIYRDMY
Method: as §1

PPAR-γ = biological target: T4, PPAR-γ (Homo sapiens, UniProt P37231); experiment: GAL4-DBD/PPAR-LBD luciferase reporter agonist assay in HEK293T cells, PPAR-γ; assay type: cell-based
T4 construct: hPPARγ/LBD encoding amino acids 184-477; expressed in transfected cells; host or cells: HEK293T
T4 sequence (P37231 184-477 isoform P37231-2): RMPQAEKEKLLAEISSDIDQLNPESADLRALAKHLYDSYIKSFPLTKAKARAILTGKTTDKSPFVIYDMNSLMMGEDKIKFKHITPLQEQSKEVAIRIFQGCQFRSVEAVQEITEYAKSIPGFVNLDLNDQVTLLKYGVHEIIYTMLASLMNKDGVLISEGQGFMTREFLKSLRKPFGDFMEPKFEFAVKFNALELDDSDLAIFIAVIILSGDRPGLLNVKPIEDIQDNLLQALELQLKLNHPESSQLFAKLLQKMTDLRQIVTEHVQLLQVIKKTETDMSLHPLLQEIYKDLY
Method: as §1

[3] = Table 10 (PPAR-δ), read-out: PPAR-δ EC50

| Compound | EC50 (PPAR-δ [2]; Table 10) [µM] | EC50 (PPAR-α; Table 10) [µM] | EC50 (PPAR-δ [2]; Table 9) [µM] | also measured |
| --- | --- | --- | --- | --- |
| CC/C=C\C/C=C\C/C=C\C/C=C\C/C=C\CCCC(=O)O [3GXW] |  |  |  | EC50 (PPAR-δ [1]): 4 µM |
| O=C(COc1ccc(C(=O)O)cc1)NC(c1ccccc1)c1ccc(Cl)cc1 (stereo not shown) [GNF-0248] | 7.55 | 7.04 |  |  |
| Cc1ccc(C(=O)Nc2cccc(CNCc3ccc(OC(F)(F)F)cc3)c2)cc1 [GNF-0341] |  |  | 0.011 | PPAR subtype selectivity (PPAR-δ [2]): agonists of PPAR-δ and PPAR-γ only; EC50 (PPAR-γ; Table 9, read-out: PPAR-γ EC50): 1.26 µM |
| O=C(O)Cc1csc(SCc2cc(F)cc3c2OC(c2ccccc2)OC3)n1 (stereo not shown) [GNF-1051] | 7.76 | 7.33 |  |  |
| CCCOc1c(/C=C/C(=O)c2ccc(SCC(=O)O)c(OC)c2)cccc1OCC [GNF-1676] | 8.39 | 6.2 |  | EC50 (PPAR-γ; [3]): 1.29 µM |
| O=C(NCc1ccc(COCC(F)(F)F)cc1)c1cc(-c2ccccc2)[nH]n1 [GNF-3632] |  |  | 0.007 | PPAR subtype selectivity (PPAR-δ [2]): agonists of PPAR-δ and PPAR-α only; EC50 (PPAR-α; Table 9): 5.48 µM |
| CCOc1cc(/C=C/C(=O)O)ccc1OCc1ccc(C(C)(C)C)cc1 [GNF-4516] | 6.82 | 2.33 |  |  |
| COc1ccc(C(=O)/C=C/c2c(C)nn(-c3ccccc3)c2Cl)cc1CSCC(=O)O [GNF-4909] | 8.24 | 0.825 |  | EC50 (PPAR-γ; [3]): 1.83 µM |
| COCCCn1c(SCc2cccc(C(=O)O)c2)nc2sc3c(c2c1=O)CCCS3 [GNF-5154] | 7.04 | > 10 |  | EC50 (PPAR-γ; [3]): > 10 µM |
| CCc1cc(C(c2cccc(OC)c2)N2CCN(CCO)CC2)c(NC(=O)c2ccccc2)s1 (stereo not shown) [GNF-5295] |  |  | 0.013 | PPAR subtype selectivity (PPAR-δ [2]): agonists of PPAR-δ and PPAR-γ only; EC50 (PPAR-α; Table 9): > 10 µM; EC50 (PPAR-γ; Table 9, read-out: PPAR-γ EC50): 7.28 µM |
| COc1cc(/C=C2/S/C(=N/c3ccccc3)NC2=O)ccc1OCc1cccc(C(=O)O)c1 [GNF-5758] | 4.33 | 6.93 |  | EC50 (PPAR-γ; [3]): 9.73 µM |
| O=C(Nc1ccccc1O)C1CCN(C(=O)COc2ccc(F)cc2)CC1 [GNF-5891] |  |  | 0.017 | EC50 (PPAR-γ; Table 9, read-out: PPAR-γ EC50): > 10 µM |
| O=C(Nc1cccc(CNCC(c2cccs2)N2CCOCC2)c1)c1ccc(Cl)cc1 (stereo not shown) [GNF-6029] |  |  | 0.012 |  |
| CCOc1cccc(/C=N/c2cccc(-c3csc(/N=C/c4cccc(OCC)c4O)n3)c2)c1O [GNF-6878] |  |  | 0.008 |  |
| O=C(OCC(=O)c1ccc(O)cc1O)c1ccc(COc2ccc3ccccc3c2)o1 [GNF-6928] | 3.7 | 6.9 |  | EC50 (PPAR-γ; [3]): 3.78 µM |
| COc1cc(CNCc2cc(C)on2)ccc1OCC(=O)Nc1ccc(Br)cc1 [GNF-6952] |  |  | 0.019 | PPAR subtype selectivity (PPAR-δ [2]): agonists of PPAR-δ and PPAR-α only; EC50 (PPAR-α; Table 9): 7.56 µM |
| O=C(NCCCCOc1ccc(F)cc1)c1ccc([N+](=O)[O-])c(O)c1 [GNF-7176] | 7.24 |  |  |  |
| COc1ccc(N2CCN(C(=O)CSc3nnc(COc4ccc(Cl)cc4C)[nH]3)CC2)cc1 [GNF-7486] |  |  | 0.018 |  |
| CC(C(=O)Nc1ccc(SC(F)F)cc1)N1CC=C(c2ccc(O)cc2)CC1 (stereo not shown) [GNF-8208] | 7.86 |  |  |  |
| O=C(CN1CCN(c2ccc(O)cc2)CC1)NCC1(N2CCOCC2)CCCCC1 [GNF-8501] |  |  | 0.006 |  |
| CCOC(=O)NC(=O)COC(=O)c1c2c(nc3ccccc13)/C(=C\c1ccc(OC)cc1)CC(C)C2 (stereo not shown) [GNF-8560] |  |  | 0.011 | PPAR subtype selectivity (PPAR-δ [2]): pan-agonist; EC50 (PPAR-α; Table 9): 1.41 µM; EC50 (PPAR-γ; Table 9, read-out: PPAR-γ EC50): 3.53 µM |
| Cc1cc(C(=O)COc2ccc(C(=O)O)cc2)c(C)n1CCC1=CCCCC1 [GNF-9057] | 7.49 | 4.63 |  | EC50 (PPAR-γ; [3]): 8.6 µM |
| O=C(Nc1ccccc1O)C1CCN(C(=O)c2ccc(OCC3CCCO3)cc2)CC1 (stereo not shown) [GNF-9448] |  |  | 0.883 | EC50 (PPAR-α; Table 9): 7.06 µM; EC50 (PPAR-γ; Table 9, read-out: PPAR-γ EC50): 0.937 µM |
| O=[N+]([O-])c1cc(S(=O)(=O)N2CCCC2)ccc1OCC(O)CNCc1ccc(F)cc1 (stereo not shown) [GNF-9594] | 4.6 |  |  |  |
| Cc1ccc(-c2nc(SCCCC(=O)N3CCOCC3)[nH]c2-c2ccc(C)cc2)cc1 [GNF-9820] |  |  | 0.012 |  |
| Cc1cc(C(=O)COC(=O)c2ccc(O)cc2O)c(C)n1Cc1ccc(F)cc1 [GNF-9969] | 9.48 | 6.94 |  | EC50 (PPAR-γ; [3]): 1.01 µM |
